Test results published in patent EP0437382A1, “Thimidin derivatives, their preparation and compositions containing them” (RHONE-POULENC SANTE, priority 1990, dated 1991).
Converted amounts (≈) assume the structure as drawn.

Tests used:
virus HIV (LAV-1-BRU) = test: microbe, parasite or virus in culture; format: cell-based; conditions: for Cellules infectées densité optique DO 600: control (0 µg/ml) 0.293
Experimental: (§1) Dans ce qui suit on décrit les résultats sur l'effet cytopathogène et la multiplication du virus HIV dans une lignée cellulaire permissive (cellules lymphoblastoïdes humaines CEM).
(§2) Le test est réalisé sur la lignée lymphoblastoïde CEM clone 13. Dans une microplaque de 96 puits on dépose 25 µl/puit d'une solution de produit à tester ou de tampon phosphate isotonique (TPI) dans le cas des contrôles. Les produits sont étudiés à différentes concentrations (souvent 8), à raison de 4 puits par concentration. On ajoute alors 125 µl d'une suspension de cellules CEM dans le milieu RPMI contenant 10 % de sérum de veau foetal, 40 U/ml de pénicilline, 40 µg/ml de streptomycine et 5 µg/ml de polybrène (3500 cellules par puit) et les microplaques sont incubées une heure à 37°C, sous une atmosphère contenant 5 % de gaz carbonique. L'essai est fait en double: une partie sur cellules infectées, pour la détermination de l'activité antivirale et l'autre partie sur cellules non infectées, pour déterminer la cytotoxité des produits. On infecte la première série avec HIV (100 µl par puit d'une suspension de virus LAV-1-BRU contenant 200-300 TCID50) tandis que l'autre série reçoit 100 µl de milieu RPMI tel que défini précédemment. Après 7 jours d'incubation, 175 µl de surnageant sont prélevés et seront utilisés par la suite pour le dosage de la reverse transcriptase. La viabilité cellulaire est déterminée selon une modification de la technique décrite par R. PAUWELS et coll., J. Virol. Meth., 20, 309-321 (1988).
(§3) Les puits, contenant encore les cellules (infectées ou non infectées), reçoivent 10 µl d'une solution de MTT (méthylthiazoletétrazolium) à 5 mg/ml dans du tampon phosphate isotonique. Pendant une période d'incubation de 4 heures, le MTT est converti en un sel de formazan (bleu) à l'intérieur des cellules vivantes et proportionnellement à leur nombre, alors que rien n'apparaît dans les puits ne contenant plus que des cellules mortes. On ajoute alors 120 µl d'isopropanol (contenant 0,04 mole/l d'acide chlorhydrique) et les microplaques sont agitées jusqu'à la solubilisation du bleu de formazan. […]
(§4) Dans ces conditions les cellules infectées sont lysées à environ 60-70 % par rapport aux cellules non infectées. On établit la concentration du produit qui inhibe l'effet cytopathogène du virus de 50 % (CE50). On détermine également celle qui inhibe de 50 % la croissance des cellules non infectées (CC50). Le rapport entre CC50 et CE50 est défini comme l'indice de sélectivité antivirale i.

[1] = system: lignée lymphoblastoïde CEM clone 13, cellules non infectées; test: Cytotoxicity on non-infected CEM cells (MTT viability); format: cell-based, humaines; conditions: 7 days, control (0 µg/ml) 0.954
Experimental: as §1, §2, §3, §4

[2] = as above; format: cell-based, humaines; conditions: human; non-infected CEM cells, 7 days; read-out: CC50 (concentration qui inhibe de 50 % la croissance des cellules non infectées)
Experimental: as §1, §2, §3, §4

[3] = system: transcriptase inverse du virus HIV; test: Viral multiplication by reverse transcriptase assay on culture supernatant; format: cell-based; conditions: 0,1 µg/cm³
Experimental: as §2, with “(1988). […]” for “(1988).”

[4] = system: précurseurs granulocytaires/macrophagiques de la moelle osseuse; test: CFU-G/M test (bone marrow granulocyte/macrophage precursors, clone formation); format: cell-based, humaine; conditions: CFU-GM, human bone marrow, read-out: concentration inhibitrice de 50% de la formation des clones
Description: (§5) Enfin, les produits selon l'invention manifestent un intérêt considérable du fait de leur absence de toxicité à des concentrations élevées à l'égard des précurseurs hématopoietiques de la moelle humaine.
(§6) Il est en effet connu que l'un des problèmes majeurs associés au traitement par certains produits de cette classe, est la toxicité sur les précurseurs erythrocytaires et granulocytaires/macrophagiques de la moelle osseuse, qui se traduit du point de vue clinique dans des sévères anémies et leucopénies [D.D. RICHMAN et al., N. Engl. J. Med., 317, 192-197, (1987). R. YARCHOAN et al., Lancet i, 575-580, (1986)]. Cette toxicité peut être mise en évidence au niveau du laboratoire par des tests in vitro, sur des précurseurs erythrocytaires et granulocytaires/macrophagiques de la moelle osseuse (J.P. SOMMADOSSI et R. CARLISLE, Antimicro. Ag. Chemother., 31, 452-454, (1987). L'étude est mise en oeuvre dans les techniques de D. THIERRY et al., Acta Radiol., 24, 521-526, (1985) et D. METCALF, Hematopoietic Colony Stimulating factors, p 88-89, Elsevier (1984).
(§7) Dans le test CFU-G/M, la concentration inhibitrice de 50% de la formation des clones est de 30 µg/ml.

[5] = system: précurseurs erythrocytaires de la moelle osseuse; test: BFU-E test (bone marrow erythrocyte precursors); format: cell-based, humaine; conditions: 108 µg/ml, human bone marrow
Description: as §5, §6, §7

Structure (SMILES): Cc1cn([C@H]2C[C@H](N=[N+]=[N-])[C@@H](CO)O2)c(=O)n(N)c1=O [Exemple 1, azido-3′ amino-3 désoxy-3′ thymidine]
- Cellules infectées densité optique DO 600 (virus HIV (LAV-1-BRU); 0.0003 µg/ml, 7 days): 0.311
- Cellules infectées densité optique DO 600 (virus HIV (LAV-1-BRU); 0.001 µg/ml, 7 days): 0.359
- Cellules infectées densité optique DO 600 (virus HIV (LAV-1-BRU); 0.003 µg/ml, 7 days): 0.456
- Cellules infectées densité optique DO 600 (virus HIV (LAV-1-BRU); 0.01 µg/ml, 7 days): 0.565
- Cellules infectées densité optique DO 600 (virus HIV (LAV-1-BRU); 0.03 µg/ml, 7 days): 0.577
- Cellules infectées densité optique DO 600 (virus HIV (LAV-1-BRU); 0.1 µg/ml, 7 days): 0.596
- Cellules infectées densité optique DO 600 (virus HIV (LAV-1-BRU); 0.3 µg/ml, 7 days): 0.838
- Cellules infectées densité optique DO 600 (virus HIV (LAV-1-BRU); 1 µg/ml, 7 days): 0.926
- Cellules infectées densité optique DO 600 (virus HIV (LAV-1-BRU); 3 µg/ml, 7 days): 0.865
- Cellules infectées densité optique DO 600 (virus HIV (LAV-1-BRU); 10 µg/ml, 7 days): 0.441
- Cellules infectées densité optique DO 600 (virus HIV (LAV-1-BRU); 30 µg/ml, 7 days): 0.007
- EC50 (virus HIV (LAV-1-BRU); Human immunodeficiency virus 1, CCRF-CEM, 168 h, infected CEM cells, 7 days, read-out: CE50 (concentration qui inhibe l'effet cytopathogène du virus de 50 %)): 0.01 µg/mL (≈ 0.0354 µM)
- indice de sélectivité i = CC50/CE50 (virus HIV (LAV-1-BRU); human, cem cells, 168 h): 1000
- cellules non infectées densité optique DO 600 ([1]; 0.0003 µg/ml): 0.935
- cellules non infectées densité optique DO 600 ([1]; 0.001 µg/ml): 0.888
- cellules non infectées densité optique DO 600 ([1]; 0.003 µg/ml): 0.882
- cellules non infectées densité optique DO 600 ([1]; 0.01 µg/ml): 0.884
- cellules non infectées densité optique DO 600 ([1]; 0.03 µg/ml): 0.901
- cellules non infectées densité optique DO 600 ([1]; 0.1 µg/ml): 0.928
- cellules non infectées densité optique DO 600 ([1]; 0.3 µg/ml): 0.931
- cellules non infectées densité optique DO 600 ([1]; 1 µg/ml): 0.909
- cellules non infectées densité optique DO 600 ([1]; 3 µg/ml): 0.892
- cellules non infectées densité optique DO 600 ([1]; 10 µg/ml): 0.368
- cellules non infectées densité optique DO 600 ([1]; 30 µg/ml): 0.004
- CC50 at 168 h [2]: 10 µg/mL (≈ 35.4 µM)
- activité de la transcriptase inverse, coups par minute (cpm) ([3]; untreated infected cultures 204363 cpm): 44558 cpm
- inhibition at 0.1 µg/mL ([3]; Human immunodeficiency virus 1, CCRF-CEM, 168 h, culture supernatant after 7 days, read-out: % d'inhibition (reverse transcriptase du virus HIV)): 80%
- IC50 [4]: 30 µg/mL (≈ 106 µM)
- toxicité dans le test BFU-E [5]: dépourvu de toxicité
